Holding throughout (type): functional
Common to all, as to settings: route intraperitoneal

Assay [1] deals with Mus musculus. The assay is described as follows: Hypoglycemic activity in normal ddY mouse at 1 mg/kg, ip assessed as blood glucose level per 100 mL blood after 4 hrs.
In assay [2] the test system is Mus musculus. Briefly: Hypoglycemic activity in normal ddY mouse at 1 mg/kg, ip assessed as blood glucose level per 100 mL blood after 7 hrs.
For assay [3], the system named is Mus musculus. Briefly: Hypoglycemic activity in normal ddY mouse at 5 mg/kg, ip assessed as blood glucose level per 100 mL blood after 4 hrs.
For assay [4], the system named is Mus musculus. The assay is described as follows: Hypoglycemic activity in normal ddY mouse at 5 mg/kg, ip assessed as blood glucose level per 100 mL blood after 7 hrs.
In assay [5] the test system is Mus musculus. Briefly: Hypoglycemic activity in diabetic KK-Ay mouse at 1 mg/kg, ip assessed as blood glucose level per 100 mL blood after 4 hrs.
In assay [6] the test system is Mus musculus. Briefly: Hypoglycemic activity in diabetic KK-Ay mouse at 1 mg/kg, ip assessed as blood glucose level per 100 mL blood after 7 hrs.
The subject of assay [7] is Mus musculus. Briefly: Hypoglycemic activity in diabetic KK-Ay mouse at 5 mg/kg, ip assessed as blood glucose level per 100 mL blood after 4 hrs.
The subject of assay [8] is Mus musculus. Briefly: Hypoglycemic activity in diabetic KK-Ay mouse at 5 mg/kg, ip assessed as blood glucose level per 100 mL blood after 7 hrs.
Assay [9] deals with Mus musculus. Briefly: Hypoglycemic activity in normal ddY mouse at 50 mg/kg, ip assessed as blood glucose level per 100 mL blood after 4 hrs.
In assay [10] the test system is Mus musculus. The assay is described as follows: Hypoglycemic activity in normal ddY mouse at 50 mg/kg, ip assessed as blood glucose level per 100 mL blood after 7 hrs.
Assay [11] has as its system Mus musculus. The assay is described as follows: Hypoglycemic activity in diabetic KK-Ay mouse at 50 mg/kg, ip assessed as blood glucose level per 100 mL blood after 4 hrs.
In assay [12] the test system is Mus musculus. Briefly: Hypoglycemic activity in diabetic KK-Ay mouse at 50 mg/kg, ip assessed as blood glucose level per 100 mL blood after 7 hrs.

Regarding `COc1ccc(/C=C/C(=O)O[C@@H]2[C@H](O[C@@H]3O[C@@H](C)[C@H](O)[C@@H](O)[C@H]3O)[C@@H](O[C@@H]3O[C@@H](C)[C@H](O[C@@H]4OC[C@@H](O[C@@H]5O[C@H](CO)[C@H](O)[C@H](O)[C@H]5O)[C@H](O)[C@H]4O)[C@@H](O[C@H]4OC[C@](O)(CO)[C@H]4O)[C@H]3O)[C@H](OC(=O)[C@]34CCC(C)(C)C[C@@H]3C3=CC[C@@H]5[C@@]6(C)C[C@H](O[C@@H]7O[C@H](CO)[C@@H](O)[C@H](O)[C@H]7O)[C@H](O)[C@@](C)(C(=O)O)[C@@H]6CC[C@@]5(C)[C@]3(CO)CC4)O[C@@H]2C)cc1` [SENEGIN IV], the Activity in assay [1] amounted to 177 mg; in assay [2], 171 mg; in assay [3], 187 mg/dL; in assay [4], 169 mg/dL; in [5], 207 mg; in [6], 276 mg. For the same compound, the Activity in [7] was 276 mg/dL; in [8], 388 mg/dL.
As for `COc1ccc(/C=C/C(=O)O[C@@H]2[C@H](O[C@@H]3O[C@@H](C)[C@H](O)[C@@H](O)[C@H]3O)[C@@H](O[C@@H]3O[C@@H](C)[C@H](O[C@@H]4OC[C@@H](O[C@@H]5O[C@H](CO)[C@H](O)[C@H](O)[C@H]5O)[C@H](O)[C@H]4O)[C@@H](O)[C@H]3O)[C@H](OC(=O)[C@]34CCC(C)(C)C[C@@H]3C3=CC[C@@H]5[C@@]6(C)C[C@H](O[C@@H]7O[C@H](CO)[C@@H](O)[C@H](O)[C@H]7O)[C@H](O)[C@@](C)(C(=O)O)[C@@H]6CC[C@@]5(C)[C@]3(CO)CC4)O[C@@H]2C)cc1` [SENEGIN III], the Activity was 167 mg in assay [1]; 172 mg in [2]; 151 mg/dL in assay [3]; 160 mg/dL in assay [4]; 195 mg in [5]; 210 mg in assay [6]. For the same compound, the Activity in [7] came to 204 mg/dL; in assay [8] it was 146 mg/dL.
For the compound `COc1ccc(/C=C/C(=O)O[C@@H]2[C@H](O)[C@@H](O[C@@H]3O[C@@H](C)[C@H](O[C@@H]4OC[C@@H](O[C@@H]5O[C@H](CO)[C@H](O)[C@H](O)[C@H]5O)[C@H](O)[C@H]4O)[C@@H](O)[C@H]3O)[C@H](OC(=O)[C@]34CCC(C)(C)C[C@@H]3C3=CCC5[C@@]6(C)C[C@H](O[C@@H]7O[C@H](CO)[C@@H](O)[C@H](O)[C@H]7O)[C@H](O)[C@@](C)(C(=O)O)[C@@H]6CC[C@@]5(C)[C@]3(CO)CC4)O[C@@H]2C)cc1OC` (stereo partly specified) [SENEGIN II], the Activity in [1] was 139 mg; in [2] it was 149 mg; in assay [3] it was 137 mg/dL; in [4], 140 mg/dL; in assay [5], 226 mg; in [6] it was 305 mg. Also, the figures for the Activity in assay [7] and in [8] were 217 mg/dL and 182 mg/dL, respectively.
As to `COc1cc(/C=C/C(=O)OC[C@@]2(O[C@H]3O[C@H](COC(C)=O)[C@@H](OC(=O)/C=C/c4ccc(O)c(OC)c4)[C@H](O[C@@H]4O[C@H](COC(C)=O)[C@@H](O[C@@H]5O[C@H](CO)[C@@H](O)[C@H](O)[C@H]5O)[C@H](O)[C@H]4O)[C@H]3O[C@@H]3O[C@H](CO)[C@@H](O)[C@H](O)[C@H]3O)O[C@H](CO)[C@@H](O)[C@@H]2OC(=O)c2ccccc2)ccc1O` [SENEGOSE A], the Activity in assay [3] was found to be 197 mg/dL; in [4], 199 mg/dL; in assay [7], 401 mg/dL; in assay [8] it was 368 mg/dL.
For `COc1ccc(/C=C/C(=O)O[C@@H]2[C@H](O)[C@@H](O[C@@H]3O[C@@H](C)[C@H](O[C@@H]4OC[C@@H](O[C@@H]5O[C@H](CO)[C@H](O)[C@H](O)[C@H]5O)[C@H](O)[C@H]4O)[C@@H](O)[C@H]3O)[C@H](OC(=O)[C@]34CCC(C)(C)C[C@@H]3C3=CC[C@@H]5[C@@]6(C)C[C@H](O[C@@H]7O[C@H](CO)[C@@H](O)[C@H](O)[C@H]7O)[C@H](O)[C@@](C)(C(=O)O)[C@@H]6CC[C@@]5(C)[C@]3(CO)CC4)O[C@@H]2C)cc1` [DESMETHOXYSENEGIN II] the same measures were 199 mg/dL, 195 mg/dL, 306 mg/dL and 325 mg/dL.
Take `CCCCNC(=O)NS(=O)(=O)c1ccc(C)cc1` [TOLBUTAMIDE]: the Activity amounted to 160 mg in assay [9], 170 mg in [10], 495 mg in assay [11] and 370 mg in assay [12].
